Laboratory results reported in article PMC9133015 (Nature Communications, 2022).
Where “and” joins values, the source holds several entries; their conditions need not be identical. Equal entries are not always repeated. Where two headings read alike, the source gives them in different places.

Columns and labels:
DYRK2 = biological target: T1, DYRK2 (Homo sapiens, UniProt Q92630); test: DYRKs kinase activity assay (33P-ATP, DYRKtide substrate): DYRK2; format: biochemical
T1 construct: purchased Reaction Biology Corporation (assay service)
T1 sequence (Q92630 1-601): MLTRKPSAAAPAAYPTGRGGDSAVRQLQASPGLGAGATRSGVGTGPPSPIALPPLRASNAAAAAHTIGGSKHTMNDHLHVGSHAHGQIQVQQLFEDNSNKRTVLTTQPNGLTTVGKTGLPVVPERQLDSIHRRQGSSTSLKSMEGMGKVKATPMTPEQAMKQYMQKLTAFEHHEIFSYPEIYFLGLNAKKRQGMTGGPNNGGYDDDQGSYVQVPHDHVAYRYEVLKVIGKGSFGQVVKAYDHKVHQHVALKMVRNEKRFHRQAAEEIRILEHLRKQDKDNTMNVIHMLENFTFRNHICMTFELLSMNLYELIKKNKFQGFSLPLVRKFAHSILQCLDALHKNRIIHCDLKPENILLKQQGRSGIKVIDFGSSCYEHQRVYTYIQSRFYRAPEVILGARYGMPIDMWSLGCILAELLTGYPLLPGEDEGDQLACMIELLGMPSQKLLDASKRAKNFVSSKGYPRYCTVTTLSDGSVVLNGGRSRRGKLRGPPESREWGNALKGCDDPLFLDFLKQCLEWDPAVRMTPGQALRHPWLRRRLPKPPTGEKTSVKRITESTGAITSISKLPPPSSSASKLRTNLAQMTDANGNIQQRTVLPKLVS

DYRK2 protein = biological target: T2, DYRK2 protein (Homo sapiens, UniProt Q92630); test: Microscale thermophoresis binding assay; settings: for Fnorm: triplicates
T2 construct: 6xHis (N, cleaved yes); TEV protease cleavage site (N, cleaved yes); made in house; host or cells: E. coli BL21 (DE3)
T2 sequence (Q92630 72-479 isoform Q92630-2): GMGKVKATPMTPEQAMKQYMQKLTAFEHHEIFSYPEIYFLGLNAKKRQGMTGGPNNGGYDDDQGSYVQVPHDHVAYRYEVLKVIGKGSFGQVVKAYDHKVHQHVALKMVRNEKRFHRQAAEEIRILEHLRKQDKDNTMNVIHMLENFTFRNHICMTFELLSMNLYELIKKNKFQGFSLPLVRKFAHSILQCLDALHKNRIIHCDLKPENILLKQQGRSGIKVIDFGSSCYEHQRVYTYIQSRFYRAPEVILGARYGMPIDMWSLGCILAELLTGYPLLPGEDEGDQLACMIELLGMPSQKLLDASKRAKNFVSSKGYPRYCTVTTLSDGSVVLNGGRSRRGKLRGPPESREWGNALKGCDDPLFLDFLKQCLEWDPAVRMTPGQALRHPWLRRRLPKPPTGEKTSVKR

CC(C)N1CCN(Cc2ccc(Nc3ncc(F)c(-c4ccc5ncsc5c4)n3)nc2)CC1 [Compound 12]
inhibition at 0.00152416 µM (DYRK2; 0.00152416 µM, duplicates, read-out: % Inhibition DYRK2): 3.73%
inhibition at 0.0137174 µM (DYRK2; 0.0137174 µM, duplicates, read-out: % Inhibition DYRK2): 8.64%
inhibition at 0.0411523 µM (DYRK2; 0.0411523 µM, duplicates, read-out: % Inhibition DYRK2): 21.1%
inhibition at 0.123457 µM (DYRK2; 0.123457 µM, duplicates, read-out: % Inhibition DYRK2): 34.4%
inhibition at 0.37037 µM (DYRK2; 0.37037 µM, duplicates, read-out: % Inhibition DYRK2): 57.9%
inhibition at 1.11111 µM (DYRK2; 1.11111 µM, duplicates, read-out: % Inhibition DYRK2): 76.8%
inhibition at 3.33333 µM (DYRK2; 3.33333 µM, duplicates, read-out: % Inhibition DYRK2): 87.6%
inhibition at 10 µM (DYRK2; 10 µM, duplicates, read-out: % Inhibition DYRK2): 82.5%
% Inhibition (DYRK2; DYRK2 kinase, Conc. 0.000508053 µM, duplicate values): 5.75% and 2.04%
% Inhibition (DYRK2; DYRK2 kinase, Conc. 0.00152416 µM, duplicate values): 4.49%
inhibition at 0.00152416 µM (DYRK2; DYRK2 kinase, Conc. 0.00152416 µM, duplicate values, read-out: % Inhibition): 3.73%
% Inhibition (DYRK2; DYRK2 kinase, Conc. 0.00457247 µM, duplicate values): 3.40% and 7.56%
% Inhibition (DYRK2; DYRK2 kinase, Conc. 0.0137174 µM, duplicate values): 7.85%
inhibition at 0.0137174 µM (DYRK2; DYRK2 kinase, Conc. 0.0137174 µM, duplicate values, read-out: % Inhibition): 8.64%
% Inhibition (DYRK2; DYRK2 kinase, Conc. 0.0411523 µM, duplicate values): 22.26%
inhibition at 0.0411523 µM (DYRK2; DYRK2 kinase, Conc. 0.0411523 µM, duplicate values, read-out: % Inhibition): 21.1%
% Inhibition (DYRK2; DYRK2 kinase, Conc. 0.123457 µM, duplicate values): 33.57%
inhibition at 0.123457 µM (DYRK2; DYRK2 kinase, Conc. 0.123457 µM, duplicate values, read-out: % Inhibition): 34.4%
% Inhibition (DYRK2; DYRK2 kinase, Conc. 0.37037 µM, duplicate values): 58.41%
inhibition at 0.37037 µM (DYRK2; DYRK2 kinase, Conc. 0.37037 µM, duplicate values, read-out: % Inhibition): 57.9%
% Inhibition (DYRK2; DYRK2 kinase, Conc. 1.11111 µM, duplicate values): 75.65%
inhibition at 1.11111 µM (DYRK2; DYRK2 kinase, Conc. 1.11111 µM, duplicate values, read-out: % Inhibition): 76.8%
% Inhibition (DYRK2; DYRK2 kinase, Conc. 3.33333 µM, duplicate values): 88.99%
inhibition at 3.33333 µM (DYRK2; DYRK2 kinase, Conc. 3.33333 µM, duplicate values, read-out: % Inhibition): 87.6%
% Inhibition (DYRK2; DYRK2 kinase, Conc. 10 µM, duplicate values): 86.13%
inhibition at 10 µM (DYRK2; DYRK2 kinase, Conc. 10 µM, duplicate values, read-out: % Inhibition): 82.5%
IC50 (DYRK2; Supplementary Table 1, read-out: IC50 (μM), DYRK2 kinase): 0.263 µM
IC50 (DYRK2; read-out: DYRK2 IC50): 0.263 µM
Kd (DYRK2 protein): 4210 nM
Fnorm (DYRK2 protein; Ligand Concentration 1.52588e-9 M): 954.38 ‰ and 953.199 ‰ and 953.894 ‰
Fnorm (DYRK2 protein; Ligand Concentration 3.05176e-9 M): 952.707 ‰ and 951.359 ‰ and 952.777 ‰
Fnorm (DYRK2 protein; Ligand Concentration 6.10352e-9 M): 952.691 ‰ and 953.017 ‰ and 952.481 ‰
Fnorm (DYRK2 protein; Ligand Concentration 1.2207e-8 M): 952.212 ‰ and 953.635 ‰ and 952.43 ‰
Fnorm (DYRK2 protein; Ligand Concentration 2.44141e-8 M): 953.58 ‰ and 951.571 ‰ and 954.168 ‰
Fnorm (DYRK2 protein; Ligand Concentration 4.88281e-8 M): 951.243 ‰ and 951.794 ‰ and 952.294 ‰
Fnorm (DYRK2 protein; Ligand Concentration 9.76563e-8 M): 951.852 ‰ and 953.231 ‰ and 951.931 ‰
Fnorm (DYRK2 protein; Ligand Concentration 1.95313e-7 M): 949.537 ‰ and 959.016 ‰ and 950.589 ‰
Fnorm (DYRK2 protein; Ligand Concentration 3.90625e-7 M): 952.367 ‰ and 950.104 ‰ and 950.78 ‰
Fnorm (DYRK2 protein; Ligand Concentration 7.8125e-7 M): 949.243 ‰ and 949.342 ‰ and 952.357 ‰
Fnorm (DYRK2 protein; Ligand Concentration 1.5625e-6 M): 951.973 ‰ and 948.051 ‰ and 949.742 ‰
Fnorm (DYRK2 protein; Ligand Concentration 3.125e-6 M): 946.14 ‰ and 947.629 ‰ and 949.334 ‰
Fnorm (DYRK2 protein; Ligand Concentration 6.25e-6 M): 948.962 ‰ and 949.021 ‰ and 944.76 ‰
Fnorm (DYRK2 protein; Ligand Concentration 1.25e-5 M): 945.246 ‰ and 944.859 ‰ and 943.424 ‰
Fnorm (DYRK2 protein; Ligand Concentration 2.5e-5 M): 944.179 ‰ and 942.478 ‰ and 945.127 ‰
Fnorm (DYRK2 protein; Ligand Concentration 5e-5 M): 942.507 ‰ and 940.515 ‰ and 942.733 ‰
